In article PMC7412453, “SAR:s for the Antiparasitic Plant Metabolite Pulchrol. 1. The Benzyl Alcohol Functionality” (Molecules, 2020):

How the values were obtained:
[1] = system: T. cruzi epimastigotes; assay: Trypanocidal activity against T. cruzi epimastigotes (XTT); format: cell-based, Trypanosoma cruzi
Method: Trypanocidal activity was determined according to Muelas-Serrano with some modifications. […] Benznidazol (3.1–100 μg/mL) was used as the control drug. Assays were performed in triplicates.

[2] = system: L. brasiliensis promastigotes; assay: Leishmanicidal activity against L. brasiliensis promastigotes (XTT)
Method: (§1) Evaluations against Leishmania parasites: Promastigotes of Leishmania-Leishmania: L. amazonensis, Clone 1, NHOM-BR-76-LTB-012 (Lma, donated by the Paul Sabatier Université, France) and Leishmania-Viannia: L. braziliensis M2904 C192 RJA (M2904, donated by Dr. Jorge Arévalo from Universidad Peruana Cayetano Heredia, Peru). All strains were cultured in Schneider’s insect medium, (pH 6.2) supplemented with 10% FBS and incubated at 26 °C. Medium changes were made every 72 h to maintain a viable parasitic population. Leishmanicidal activity was determined according to Williams with some modifications. Samples were dissolved in DMSO (maximum final concentration 1%) at 10 mg/mL. Promastigotes in logarithmic phase of growth, at the concentration 3 × 10^6 parasites/mL, were distributed (100 μL/well) in 96-well flat bottom microtiter plates. Samples with different concentrations (3.1–100 μg/mL) were added (100 μL). […] Assays were performed in triplicates. The microwell plates were incubated for 72 h at 26 °C. After incubation, a solution of XTT (1 mg/mL) in PBS (pH 7.0 at 37 °C) with PMS (0.06 mg/mL) was added (50 μL/well), and incubated for 3 h at 26 °C. The optical density of each well was measured and the IC50 values calculated.

[3] = system: L. amazoniensis promastigotes; assay: Leishmanicidal activity against L. amazoniensis promastigotes (XTT)
Method: as §1, with “All” for “Evaluations against Leishmania parasites: Promastigotes of Leishmania-Leishmania: L. amazonensis, Clone 1, NHOM-BR-76-LTB-012 (Lma, donated by the Paul Sabatier Université, France) and Leishmania-Viannia: L. braziliensis M2904 C192 RJA (M2904, donated by Dr. Jorge Arévalo from Universidad Peruana Cayetano Heredia, Peru). All”

[4] = system: Raw 264.7 murine macrophage cell line; assay: Cytotoxicity in RAW cells (Resazurin); format: cell-based; conditions: RAW cells, 72 h at 37 °C, Resazurin, triplicate
Method: Evaluations against RAW cells: The Raw 264.7 murine macrophage cell line was purchased from the American Type Culture Collection (ATCC-TIB71). The cells were maintained in DMEM-HG medium supplemented with 10% fetal bovine serum, 100 U/mL of penicillin and 100 μg/mL of streptomycin, and sodium bicarbonate (2.2 g/L) in humidified atmosphere at 37 °C with 5% CO2. Samples were prepared as described above and added (in 100 μL DMSO) at different concentrations (6.2–200 μg/mL). Medium blank, control drugs and cell growth controls were included to evaluate cell viability. The plates were incubated for 72 h at 37 °C with 5% CO2. After incubation for the indicated time, the cells were washed, after which 10 μL of Resazurin reagent (2.0 mM) was added. They were further incubated at 37 °C for 3 h in a humidified incubator. The IC50 values were assessed using a fluorometric reader (540 nm excitation, 590 nm emission) and the Gen5 software. All assays were performed in triplicate.

## 2-Methoxy-6,6-dimethyl-9-(((4-methoxypentyl)oxy)methyl)-6H-benzo[c]chromene [3e]
[1]; RAW cell IC50 / T. cruzi IC50
  T. cruzi SI (selectivity index, cytotoxicity/anti-protozoal activity): 3.5
[1]; epimastigotes, 72 h at 26 °C, XTT, triplicates, read-out: T. cruzi IC50
  IC50: 9 ± 0.6 µM
[2]; RAW cell IC50 / L. brasiliensis IC50
  L. brasiliensis SI (selectivity index, cytotoxicity/anti-protozoal activity): 0.3
[2]; read-out: L. brasiliensis IC50, promastigotes, 72 h at 26 °C, XTT, triplicates
  IC50: 127 ± 11.3 µM
[3]; RAW cell IC50 / L. amazoniensis IC50
  L. amazoniensis SI (selectivity index, cytotoxicity/anti-protozoal activity): 1.1
[3]; read-out: L. amazoniensis IC50, promastigotes, 72 h at 26 °C, XTT, triplicates
  IC50: 28.2 ± 8.5 µM
[4]
  IC50: 31.6 ± 5.6 µM
